pEC50: −log10 of the molar value.
Molecular target: T1, ΔF508-CFTR (Homo sapiens, UniProt P13569, DEL508-508)
T1 construct: expressed in transfected cells
Assay: Membrane potential optical assay for ΔF508-CFTR correction (single-addition HTS format)
Assay type: cell-based
Conditions: NIH 3T3 cells expressing ΔF508-CFTR, 16-24 hrs with test compound, 10 µM forskolin and genistein (20 µM); for pEC50: read-out: Binned EC50; for Emax: NIH3T3, read-out: Binned Max Efficacy
Source text: Membrane potential optical methods for assaying ΔF508-CFTR modulation properties of compounds.
The assay utilizes fluorescent voltage sensing dyes to measure changes in membrane potential using a fluorescent plate reader (e.g., FLIPR III, Molecular Devices, Inc.) as a readout for increase in functional ΔF508-CFTR in NIH 3T3 cells. The driving force for the response is the creation of a chloride ion gradient in conjunction with channel activation by a single liquid addition step after the cells have previously been treated with compounds and subsequently loaded with a voltage sensing dye.
To identify small molecules that correct the trafficking defect associated with ΔF508-CFTR; a single-addition HTS assay format was developed. Assay Plates containing cells are incubated for ∼2-4 hours in tissue culture incubator at 37°C, 5%CO2, 90% humidity. Cells are then ready for compound exposure after adhering to the bottom of the assay plates.
The cells were incubated in serum-free medium for 16-24 hrs in tissue culture incubator at 37°C, 5%CO2, 90% humidity in the presence or absence (negative control) of test compound. The cells were subsequently rinsed 3X with Krebs Ringers solution and loaded with a voltage sensing redistribution dye. To activate ΔF508-CFTR, 10 µM forskolin and the CFTR potentiator, genistein (20 µM), were added along with Cl^--free medium to each well. The addition of Cl^--free medium promoted Cl^- efflux in response to ΔF508-CFTR activation and the resulting membrane depolarization was optically monitored using voltage sensor dyes.
Bath Solution #1: (in mM) NaCl 160, KCl 4.5, CaCl2 2, MgCl2 1, HEPES 10, pH 7.4 with NaOH.
Chloride-free bath solution: Chloride salts in Bath Solution #1 are substituted with gluconate salts.
NIH3T3 mouse fibroblasts stably expressing ΔF508-CFTR are used for optical measurements of membrane potential. The cells are maintained at 37 °C in 5% CO2 and 90 % humidity in Dulbecco's modified Eagle's medium supplemented with 2 mM glutamine, 10 % fetal bovine serum, 1 X NEAA, β-ME, 1 X pen/strep, and 25 mM HEPES in 175 cm^2 culture flasks. For all optical assays, the cells were seeded at […] in 384-well matrigel-coated plates and cultured for 2 hrs at 37 °C before culturing at 27 °C for 24 hrs. for the potentiator assay. For the correction assays, the cells are cultured at 27 °C or 37 °C with and without compounds for 16 - 24 hours.

T1 sequence (P13569 with tags, fused parts or gaps DEL508-508): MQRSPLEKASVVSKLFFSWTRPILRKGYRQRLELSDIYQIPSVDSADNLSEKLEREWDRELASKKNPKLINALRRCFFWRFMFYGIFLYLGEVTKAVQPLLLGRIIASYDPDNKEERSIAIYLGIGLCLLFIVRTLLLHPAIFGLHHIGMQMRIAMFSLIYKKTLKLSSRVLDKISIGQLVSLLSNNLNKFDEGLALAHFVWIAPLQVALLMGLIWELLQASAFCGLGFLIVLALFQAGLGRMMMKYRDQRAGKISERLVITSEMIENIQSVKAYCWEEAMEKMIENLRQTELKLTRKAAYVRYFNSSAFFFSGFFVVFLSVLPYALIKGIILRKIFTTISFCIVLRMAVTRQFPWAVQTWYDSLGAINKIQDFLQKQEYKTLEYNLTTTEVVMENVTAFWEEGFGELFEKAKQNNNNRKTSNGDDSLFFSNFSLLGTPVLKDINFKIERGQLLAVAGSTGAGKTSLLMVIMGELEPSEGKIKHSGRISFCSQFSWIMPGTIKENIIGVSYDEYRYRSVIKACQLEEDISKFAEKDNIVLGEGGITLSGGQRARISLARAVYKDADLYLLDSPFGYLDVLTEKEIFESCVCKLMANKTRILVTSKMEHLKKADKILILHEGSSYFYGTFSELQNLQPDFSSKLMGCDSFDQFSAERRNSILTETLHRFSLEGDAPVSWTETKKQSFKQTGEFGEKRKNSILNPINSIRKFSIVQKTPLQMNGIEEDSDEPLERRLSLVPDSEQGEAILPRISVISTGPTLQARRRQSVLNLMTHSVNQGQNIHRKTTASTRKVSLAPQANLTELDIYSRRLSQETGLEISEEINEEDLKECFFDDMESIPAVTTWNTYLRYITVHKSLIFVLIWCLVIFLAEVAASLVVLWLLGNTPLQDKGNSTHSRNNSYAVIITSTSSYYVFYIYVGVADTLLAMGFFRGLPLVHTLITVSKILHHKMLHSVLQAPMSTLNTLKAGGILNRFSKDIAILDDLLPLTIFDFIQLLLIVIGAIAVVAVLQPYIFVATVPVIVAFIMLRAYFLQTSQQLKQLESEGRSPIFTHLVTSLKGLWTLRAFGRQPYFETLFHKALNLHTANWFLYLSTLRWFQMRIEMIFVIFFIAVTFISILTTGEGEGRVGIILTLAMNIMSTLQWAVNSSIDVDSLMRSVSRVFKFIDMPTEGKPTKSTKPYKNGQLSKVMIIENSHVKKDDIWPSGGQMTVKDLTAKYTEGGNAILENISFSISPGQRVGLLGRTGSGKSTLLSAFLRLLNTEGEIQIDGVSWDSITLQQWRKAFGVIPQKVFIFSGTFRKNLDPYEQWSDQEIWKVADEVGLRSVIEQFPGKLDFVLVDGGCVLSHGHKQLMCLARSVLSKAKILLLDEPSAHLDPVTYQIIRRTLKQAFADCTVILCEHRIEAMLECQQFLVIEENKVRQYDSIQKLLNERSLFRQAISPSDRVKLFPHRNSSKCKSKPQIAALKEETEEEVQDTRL

Compound	pEC50	Emax [%]	Binned Max Efficacy
2-(2-tert-butyl-5-(1-(2,2-difluorobenzo[d][1,3]dioxol-5-yl)cyclopropanecarboxamido)-6-fluoro-1H-indol-1-yl)-N,N,N-trimethylethanaminium chloride [Compound 308]	5.30 to 5.70		+++ ("+++" means > 100%)
CC(C)(CCOC[C@@H](O)CO)c1cc2cc(NC(=O)C3(c4ccc5c(c4)OC(F)(F)O5)CC3)c(F)cc2[nH]1 [Compound 309, (S)-1-(2,2-difluorobenzo[d][1,3]dioxol-5-yl)-N-(2-(4-(2,3-dihydroxypropoxy)-2-methylbutan-2-yl)-6-fluoro-1H-indol-5-yl)cyclopropanecarboxamide]	> 5.70	> 100	
CC(C)(C)c1cc2cc(NC(=O)C3(c4ccc5c(c4)OCO5)CC3)c(F)cc2n1CC(O)CO (stereo not drawn) [Compound 318]	> 5.70	> 100	

Further lines, with some results ahead:

pEC50	Emax [%]	Compound	Binned Max Efficacy
> 5.70	> 100	CC(C)(CCOC[C@@H](O)CO)c1cc2cc(NC(=O)C3(c4ccc5c(c4)OC(F)(F)O5)CC3)c(F)cc2n1C[C@@H](O)CO [Compound 310, 1-(2,2-difluorobenzo[d][1,3]dioxol-5-yl)-N-(2-(4-((S)-2,3-dihydroxypropoxy)-2-methylbutan-2-yl)-1-((R)-2,3-dihydroxypropyl)-6-fluoro-1H-indol-5-yl)cyclopropanecarboxamide]	
> 5.70	> 100	CC(C)(CCO)c1cc2cc(NC(=O)C3(c4ccc5c(c4)OC(F)(F)O5)CC3)c(F)cc2n1C[C@@H](O)CO [Compound 311, (R)-1-(2,2-difluorobenzo[d][1,3]dioxol-5-yl)-N-(1-(2,3-dihydroxypropyl)-6-fluoro-2-(4-hydroxy-2-methylbutan-2-yl)-1H-indol-5-yl)cyclopropanecarboxamide]	
> 5.70	> 100	CC(C)(C)c1cc2c(C#N)c(NC(=O)C3(c4ccc5c(c4)OC(F)(F)O5)CC3)ccc2n1CCO [Compound 315, N-(2-tert-butyl-4-cyano-1-(2-hydroxyethyl)-1H-indol-5-yl)-1-(2,2-difluorobenzo[d][1,3]dioxol-5-yl)cyclopropanecarboxamide]	
